SMILES strings stand for the structures. Like-named read-outs stand apart in the source and are kept apart here.

One series concerns soy bean plants. Kind of series: Plant compatibility test using soy bean plants. As to conditions: soy bean young plants sprayed at 500 ppm, evaluated 6 days after application; 0% no damages, 100% totally damaged. The series is classed as in vivo. As for the experimental part: [table] To produce a suitable preparation of active compound, 1 part by weight of active compound is mixed with the stated amounts of solvent and emulsifier, and the concentrate is diluted with water to the desired concentration. Young plants are sprayed with the preparation of active compound at the stated application rate. The plants are then placed in a greenhouse at approximately 21° C. and a relative atmospheric humidity of approximately 80%. The test is evaluated 6 days after application and comprises plant damages like leaf deformation, chlorosis, necrosis, shoot damage or stunting. 0% means no damages are observed, while 100% means that the plants are totally damaged.

The nature of series [1]: Photolysis stability test. Type of series: physicochemical. As to conditions: dried film in MTP, irradiated at 30° C. and 480 W/m^2 (SUNTEST), first order degradation assumed. As for the experimental part: The stability towards photolysis of the phenylamidines described in the prior art is good but an improved stability towards photolysis may be an advantage as it could offer a longer lasting efficacy when applied to plants by foliar application. The improved stability towards photolysis was proven by a […] stability test as described below: To produce a suitable preparation of active compound for the photolysis stability test, a 1000 ppm stock solution (1 mg/mL) of active compound in acetonitrile is prepared. Aliquots of […] of this stock solution are pipetted in three wells of a Bio-one microtiter plate (MTP) UVStar 96 (Fa. Greiner, Art. No. 655801). The MTP is dried overnight in the dark and then irradiated at 30° C. and 480 W/m^2 with a UV irradiation device SUNTEST XLS+ or SUNTEST CPS (Fa. Atlas). The amount A of the active compound is analyzed by HPLC (UV-peak areas at 210 nm) at five points in time t: 0 h, 2 h, 4 h, 6 h, 24 h by using the following method: 200 μL acetonitrile is added in the respective well of the MTP and the MTP is sealed with a Bio-one sealing foil, viewseal 80/140 mm (Fa. Greiner, Art. No. 676070). The MTPs are sonicated for 3 minutes and analysed by HPLC. The half-life time (T1/2) of each active compound is calculated via linear regression by using the following equations (first order degradation assumed): […]

A short description of series [2]: Log P by HPLC on reversed phase columns (EEC directive 79/831 Annex V.A8). Type of series: physicochemical. The following applies: reversed phase HPLC column, LC-UV. As for the experimental part: Measurement of Log P values was performed according to EEC directive 79/831 Annex V.A8 by HPLC (High Performance Liquid Chromatography) on reversed phase columns with the following methods: • ^[a] Log P value is determined by measurement of LC-UV, in an acidic range, with 0.1% formic acid in water and acetonitrile as eluent (linear gradient from 10% acetonitrile to 95% acetonitrile). • ^[b] Log P value is determined by measurement of LC-UV, in a neutral range, with 0.001 molar ammonium acetate solution in water and acetonitrile as eluent (linear gradient from 10% acetonitrile to 95% acetonitrile). […] Lambda-max-values were determined using UV-spectra from 200 nm to 400 nm and the peak values of the chromatographic signals.

The nature of series [3]: Hydrolysis stability test in homogeneous aqueous solution. Type of series: physicochemical. As to conditions: 50° C., 24 hours, first order degradation assumed. As for the experimental part:
To produce a suitable preparation of active compound for the hydrolysis stability test, a 1000 ppm stock solution (1 mg/mL) of active compound in acetonitrile is prepared. Three aliquots of […] are pipetted into HPLC vials and diluted with 750 μL acetonitrile. In each vial 850 μL of the appropriate buffer solution (pH4, pH7 and pH9, CertiPUR, Fa. Merck) is added. The buffer containing HPLC vials are incubated in a heated sample tray at 50° C. for 24 hours. The amount A of the active compound is analyzed by HPLC (UV-peak areas at 210 nm) at eight points in time t: 0 min, 140 min, 350 min, 560 min, 770 min, 980 min, 1190 min, 1400 min. The half-life time (T1/2) of each active compound is calculated via linear regression by using the following equations (first order degradation assumed): [formula] [formula]

[4] abbreviates: acidic range, 0.1% formic acid in water and acetonitrile as eluent, read-out: LogP [a].
[5] abbreviates: neutral range, 0.001 molar ammonium acetate solution in water and acetonitrile as eluent, read-out: LogP [b].

Turning to `CCN(C)/C=N/c1cc(C)c(Oc2ccccc2)cc1C` [Compound no. 1 known from WO2008/110313, reference compound], the Necrosis in % with soy bean plants came out at 90%.
`CCN(C)/C=N/c1cc(C)c(Oc2ccccc2)cc1Cl` [Example I-01, N′-(2-chloro-5-methyl-4-phenoxyphenyl)-N-ethyl-N-methylimidoformamide]: the Necrosis in % with soy bean plants was 50%. The molecule also gave a half-life in series [1] of over 200 h. Further, the chromatographic logP in series [2] (setting [4]) was 1.6. Further, the half-life at 59 µg/mL in series [3] (buffer pH 7/acetonitrile, read-out: T1/2 (pH 7) (converted)) is 45 h; in series [3] (buffer pH 9/acetonitrile, read-out: T1/2 (pH 9) (converted)), 40 h.
`CCN(C)/C=N/c1cc(C)c(Oc2ccccc2)cc1Br` [Example I-02, N′-(2-bromo-5-methyl-4-phenoxyphenyl)-N-ethyl-N-methylimidoformamide]: the Necrosis in % in the series on soy bean plants came to 10%. The chromatographic logP in series [2] (setting [4]) stood at 1.61; in series [2] (setting [5]), 4.67.
Take `CCN(C)C=Nc1cc(C)c(Oc2ccccc2)cc1F` [Example I-03, N-ethyl-N′-(2-fluoro-5-methyl-4-phenoxyphenyl)-N-methylimidoformamide]: the chromatographic logP in series [2] (setting [4]) stood at 1.55; in series [2] (setting [5]), 3.97.
`Cc1cc([N+](=O)[O-])c(Br)cc1Oc1ccccc1` [VI-02, 1-bromo-4-methyl-2-nitro-5-phenoxybenzene]: in series [2] (setting [4]), the chromatographic logP is 4.51.
For `Cc1cc(N)c(Br)cc1Oc1ccccc1` [VIII-02, 2-bromo-5-methyl-4-phenoxyaniline], the chromatographic logP is 3.66 in series [2] (setting [4]) and 3.65 in series [2] (setting [5]).

The record behind these values is patent publication US10912297B2, “Phenoxyhalogenphenylamidines and the use thereof as fungicides” (priority 2015, dated 2021).
